The target in one test is Serine protease 1 (Homo sapiens, UniProt P07477). The experiment in a line: Inhibitory activity towards Trypsin.
A further test addresses Prothrombin (Homo sapiens, UniProt P00734). The experiment in a line: Inhibitory activity towards Thrombin.

Here are results for two compounds from ChEMBL document CHEMBL1133576, “Structural basis of the thrombin selectivity of a ligand that contains the constrained arginine mimic (2S)-2-amino-(3S)-3-(1-carbamimidoyl- piperidin-3-yl)-propanoic acid at P1” (J Med Chem, 2000).

The structures appear in SMILES notation.

Serine protease 1, sequence (P07477 whole entry): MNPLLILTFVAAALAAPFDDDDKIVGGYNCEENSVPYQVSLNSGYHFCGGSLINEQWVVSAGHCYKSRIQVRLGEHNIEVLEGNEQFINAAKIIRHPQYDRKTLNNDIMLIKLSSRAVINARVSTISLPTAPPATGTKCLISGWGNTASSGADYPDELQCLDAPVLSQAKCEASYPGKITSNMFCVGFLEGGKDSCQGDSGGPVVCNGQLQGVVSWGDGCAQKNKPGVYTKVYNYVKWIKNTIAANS

At Serine protease 1, `N=C(N)NCCC[C@H](NC(=O)[C@@H]1CC[C@H]2CN(C(=O)CCc3ccccc3)CC(=O)N21)C(=O)c1nccs1` returned a 50% inhibitory concentration (IC50) of 1 nM. In addition, at Prothrombin, the Ki came to 0.6 nM.
`N=C(N)N1CCCC(C[C@H](NC(=O)[C@@H]2CC[C@H]3CN(C(=O)CCc4ccccc4)CC(=O)N32)C(=O)c2nccs2)C1` (some centres undefined): the Ki was 4000 nM on Serine protease 1 and 3.5 nM on Prothrombin.
